Measurements: patent US10294217B2, “Fluoroindole derivatives as muscarinic M1 receptor positive allosteric modulators” (Suven Life Sciences Limited, priority 2015, dated 2019)

Assays:
Male Wistar rats = test: Object recognition task model; format: in vivo; conditions: p.o.; for Exploration time Familiar object / Exploration time Novel object: mean ± S.E.M, choice trial 24 hours after T1
Experimental: Object Recognition Task Model
The cognition enhancing properties of compounds of this invention were estimated by using this model.
Male Wistar rats (8-10 weeks old) were used as experimental animals. Four animals were housed in each cage. Animals were kept on 20% food deprivation from a day prior to experimentation. Water was provided ad libitum throughout the experiment. Animals were maintained on a 12 hours light/dark cycle in temperature and humidity controlled room. The experiment was carried out in an open field made up of acrylic. Rats were habituated to individual arenas (open field) for 1 hour in the absence of any objects on day 1.
One group of 12 rats received vehicle and another set of animals received compound of the formula (I), before the familiar (T1) and choice (T2) trials. During the familiarization phase, (T1), the rats were placed individually in the arena for 3 minutes, in which two identical objects (a1 and a2) were positioned 10 cm from the wall. 24 hours after T1, trial for long-term memory test was performed. The same rats were placed in the same arena as they were placed in T1 trial. During the choice phase (T2) rats were allowed to explore the arena for 3 minutes in presence of a copy of familiar object (a3) and one novel object (b). During the T1 and T2 trial, explorations of each object (defined as sniffing, licking, chewing or having moving vibrissae whilst directing the nose towards the object at a distance of less than 1 cm) were recorded using stopwatch. • T1 is the total time spent exploring the familiar objects (a1+a2). • T2 is the total time spent exploring the familiar object and novel object (a3+b). • Discriminative index=Time spent with novel object/(time spent with novel and familiar object).
The object recognition test was performed as described by Behavioural Brain Research, 1988, 31, 47-59 and the results are provided in table 5.

[1] = Rodent brain penetration study; format: in vivo, Male Wistar rats; conditions: male, Wistar, rat, oral; 3 mg/kg, p.o.; brain-plasma ratio; read-out: Single dose Rat Brain Penetration (Cb/Cp)
Experimental: WO2015044072A1 patent application discloses indole derivatives as M1 PAM compounds. […] This makes these compounds less ideal for the treatment of CNS disorders.
Rodent Brain Penetration Study
Male Wistar rats (260±40 grams) were used as experimental animals. Three animals were housed in each cage. Animals were given water and food ad libitum throughout the experiment and maintained on a 12 hours light/dark cycle.
Brain penetration was determined in discrete manner in rats. One day prior to dosing day, male Wistar rats were acclimatized and randomly grouped according to their weight. At each time point (0.5, 1 and 2 hours) n=3 animals were used.
The test compounds were suitably preformulated and administered orally at (free base equivalent) 3 mg/kg. Blood samples were removed via cardiac puncture by using isoflurane anesthesia. The animals were sacrificed to collect brain tissue. Plasma was separated and brain samples were homogenized and stored frozen at ˜20° C. until analysis. The concentrations of the test compounds in plasma and brain were determined using LC-MS/MS method.
The test compounds were quantified in plasma and brain homogenate by qualified LC-MS/MS method using suitable extraction technique. The test compounds were quantified in the calibration range of 1-500 ng/mL in plasma and brain homogenate. Study samples were analyzed using calibration samples in the batch and quality control samples spread across the batch.

[2] = Protein binding assay (HT dialysis), human matrices; format: in vitro ADME; conditions: Mean ± SEM
Experimental: (§1) Unbound fractions of new chemical entities in plasma, brain homogenate and liver microsomes were determined using high-throughput dialysis (HT dialysis). Briefly, dialysis membranes were soaked in deionized water for 20 minutes and then in deionized water with 30% ethanol for 15 minutes and finally in phosphate buffer until use. Membranes were rinsed in phosphate buffer before assembling. The membranes were layered between teflon bars of dialysis assembly. Stock solutions of test compounds were prepared at 10 mM in DMSO, diluted to 1 mM in acetonitrile and further diluted to 100 μM in mixture of water and acetonitrile (1:1 v/v). Human plasma (pool of 3) was prepared from human blood (3 donors) by centrifuging at 4000 rpm for 10 min at 4° C. Rat and dog blood were obtained on the day of the study and centrifuged to obtain plasma. Rat brains were isolated, cleaned and homogenized with 2 volumes of buffer (3 fold dilution). Liver microsomes were prepared at 0.5 mg/mL in phosphate buffer (100 mM, pH 7.4). The dialysate chambers were loaded with 150 μL of 100 mM phosphate buffer (pH 7.4) in triplicates. The matrix chambers were loaded with 150 μL of the plasma or brain homogenate or microsomal suspension spiked with test compounds at a final concentration of 1 μM. 50 μL of the sample was removed from both the chambers at 0 h. The plate was sealed and incubated at 37° C. for 6 h at 100 rpm. After 6 h, 50 μL of the sample was removed from both the chambers. Equal volumes of buffer or human plasma/microsomal suspension were added to the plasma/microsomal and buffer samples respectively to create identical sample matrices for analysis. The samples were precipitated with 150 μL of acetonitrile containing fluoxetine as an internal standard. All the samples were centrifuged at 10000 rpm for 10 minutes at 4° C.

[3] = Protein binding assay (HT dialysis), rat matrices; format: in vitro ADME; conditions: Mean ± SEM
Experimental: as §1

[4] = Rodent pharmacokinetic study; format: in vivo, Male Wistar rats; conditions: male, Wistar; for AUC(0-t) / half-life / Cmax: rat plasma; for clearance / bioavailability: plasma, rat; for bioavailability: oral 3 mg/kg vs i.v. 1 mg/kg, read-out: % F (Bioavailability)
Experimental: Rodent Pharmacokinetic Study
Male Wistar rats (260±50 grams) were used as experimental animals. Animals were housed individually in polypropylene cage. Two days prior to study, male Wistar rats were anesthetized with isoflurane for surgical placement of jugular vein catheter. Rats were randomly divided for oral (3 mg/kg) and intravenous (i.v.) (1 mg/kg) dosing (n=3/group) and fasted overnight before oral dosing (p.o.). However, rats allocated to intravenous dosing food and water was provided ad libitum.
At pre-determined point, blood was collected through jugular vein and replenished with an equivalent volume of normal saline. Collected blood was transferred into a labeled eppendorf tube containing 10 μL of heparin as an anticoagulant. Typically blood samples were collected at following time points: 0.08, 0.25, 0.5, 1, 2, 4, 6, 8, and 24 hours post dose. Blood was centrifuged at 4000 rpm for 10 minutes. Plasma was separated and stored frozen at −80° C. until analysis. The concentrations of the test compounds were quantified in plasma by qualified LC-MS/MS method using suitable extraction technique. The test compounds were quantified in the calibration range around 1-1000 ng/mL in plasma. Study samples were analyzed using calibration samples in the batch and quality control samples spread across the batch.
Pharmacokinetic parameters Cmax, AUCt, T1/2, Clearance, and Bioavailability (% F) were calculated by non-compartmental model using standard non-compartmental model by using Phoenix WinNonlin 6.0.2 or 6.0.3 version Software package and the results are tabulated in table 3.

[5] = pH 7.4, Human liver microsomes 0.5 mg/mL, n = 3, read-out: Fu Microsomes
[6] = pH 7.4, Human plasma, 37° C., n = 3, read-out: Fu Plasma
[7] = pH 7.4, Rat brain homogenate, 37° C., n = 3, read-out: Fu Brain
[8] = pH 7.4, Rat liver microsomes 0.5 mg/mL, n = 3, read-out: Fu Microsomes
[9] = pH 7.4, Rat plasma, 37° C., n = 3, read-out: Fu Plasma

Structure (SMILES)	Kp [1]	fraction unbound at 6 h, 1 μM [2, 5]	fraction unbound at 6 h, 1 μM [2, 6]	fraction unbound at 6 h, 1 μM [3, 7]	fraction unbound at 6 h, 1 μM [3, 8]	fraction unbound at 6 h, 1 μM [3, 9]	AUC(0-t) ([4]; iv, 1 mg/kg) [ng·h/mL]	half-life ([4]; iv, 1 mg/kg) [h]	clearance ([4]; iv, 1 mg/kg) [mL/min/kg]	bioavailability [4] [%]	AUC(0-t) ([4]; oral, 3 mg/kg) [ng·h/mL]	Cmax ([4]; oral, 3 mg/kg) [ng/mL]	half-life ([4]; oral, 3 mg/kg) [h]	Inference (Male Wistar rats; 0.3 mg/kg)	Exploration time Familiar object (Male Wistar rats; 0.3 mg/kg) [s]	Exploration time Novel object (Male Wistar rats; 0.3 mg/kg) [s]	Inference (Male Wistar rats; 1 mg/kg)	Exploration time Familiar object (Male Wistar rats; 1 mg/kg) [s]	Exploration time Novel object (Male Wistar rats; 1 mg/kg) [s]	further results
Cl.O=C(N[C@H]1CCNC[C@H]1F)c1cn(Cc2ccnc(F)c2)c2c(F)ccc(F)c12 (single isomer, unassigned; isomer-i) [Example 22, Cis-N-(3-Fluoropiperidin-4-yl)-1-(2-fluoropyridin-4-ylmethyl)-4,7-difluoro-1H-indole-3-carboxamide hydrochloride (Isomer-I)]	0.46 ± 0.11	0.788 ± 0.031	0.309 ± 0.008	0.067 ± 0.002	0.902 ± 0.006	0.315 ± 0.03	908 ± 198	7.6 ± 1.7	17.1 ± 3.3	60 ± 5	1650 ± 147	207 ± 76	4.8 ± 2.8	–	–	–	–	–	–	Inference (Male Wistar rats; 3 mg/kg): Active; Exploration time Familiar object (Male Wistar rats; 3 mg/kg): 8.21 ± 0.70 s; Exploration time Novel object (Male Wistar rats; 3 mg/kg): 15.72 ± 2.25 s
Cn1cc(Cn2cc(C(=O)N[C@H]3CCCC[C@@H]3O)c3c(F)cccc32)cn1 [Example 1, N-[(1S,2S)-2-Hydroxycyclohexyl]-1-(1-methyl-1H-pyrazol-4-ylmethyl)-4-fluoro-1H-indole-3-carboxamide]	0.3 ± 0.05	–	0.197 ± 0.01	0.166 ± 0.01	0.836 ± 0.04	0.267 ± 0.03	2250 ± 190	3 ± 0.3	7.3 ± 0.4	76 ± 7	5160 ± 464	1190 ± 81	2.9 ± 0.2	Active	11.31 ± 1.07	28.92 ± 3.54	–	–	–	–
O=C(N[C@H]1CCCC[C@@H]1O)c1cn(Cc2ccnc(Cl)c2)c2cccc(F)c12 [Example 2, N-[(1S,2S)-2-Hydroxycyclohexyl]-1-(2-chloropyridin-4-ylmethyl)-4-fluoro-1H-indole-3-carboxamide]	0.95 ± 0.17	0.459 ± 0.046	0.04 ± 0.002	0.015 ± 0.001	0.679 ± 0.081	0.068 ± 0.002	1150 ± 245	1.9 ± 0.4	16.1 ± 2.8	63 ± 17	2160 ± 599	632 ± 167	1.9 ± 0.2	–	–	–	Active	9.06 ± 1.75	15.09 ± 2.19	–
Cn1cc(Cn2cc(C(=O)N[C@H]3CCCC[C@@H]3O)c3c(F)ccc(F)c32)cn1 [Example 5, N-[(1S,2S)-2-Hydroxycyclohexyl]-1-(1-methyl-1H-pyrazol-4-ylmethyl)-4,7-difluoro-1H-indole-3-carboxamide]	0.5 ± 0.04	0.899 ± 0.03	0.077 ± 0.01	0.128 ± 0.01	0.779 ± 0.01	0.21 ± 0.01	2920 ± 1430	4 ± 1.7	7.1 ± 4.3	90 ± 33	7870 ± 2860	2680 ± 664	3.3 ± 0.3	Active	11.00 ± 0.81	19.64 ± 1.74	–	–	–	–
O=C(N[C@H]1CCCC[C@@H]1O)c1cn(Cc2ccnc(F)c2)c2cccc(F)c12 [Example 7, N-[(1S,2S)-2-Hydroxycyclohexyl]-1-(2-fluoropyridin-4-ylmethyl)-4-fluoro-1H-indole-3-carboxamide]	0.61 ± 0.01	0.7 ± 0.03	0.1 ± 0.004	0.06 ± 0.004	0.8 ± 0.04	0.2 ± 0.02	1120 ± 119	2 ± 0.4	14.2 ± 2	67 ± 14	2260 ± 471	783 ± 254	1.4 ± 0.2	–	–	–	Active	9.16 ± 0.83	19.56 ± 1.96	–
O=C(N[C@H]1CCCC[C@@H]1O)c1cn(Cc2ccnc(F)c2)c2c(F)ccc(F)c12 [Example 8, N-[(1S,2S)-2-Hydroxycyclohexyl]-1-(2-fluoropyridin-4-ylmethyl)-4,7-difluoro-1H-indole-3-carboxamide]	1.1 ± 0.1	0.626 ± 0.037	0.079 ± 0.006	0.0348 ± 0.0001	0.606 ± 0.008	0.089 ± 0.01	1830 ± 562	1.8 ± 0.3	9 ± 3	45 ± 15	2500 ± 842	578 ± 170	2.3 ± 1.8	Active	7.59 ± 1.02	14.36 ± 1.56	–	–	–	–
